The nature of series [1]: Solubility of the compound. The series is classed as physicochemical.
Series [2] has as its system HCT-116. Put plainly: Antiproliferative activity against MTAP-/- isogenic variant of human HCT-116 cells assessed as inhibition of cell growth by proliferation assay. Format: functional, cell-based.
Series [3] has as its system HCT-116. In words: Antiproliferative activity against human HCT-116 cells assessed as inhibition of cell growth by proliferation assay. Format: functional, cell-based.
Series [4] concerns the target T1, S-adenosylmethionine synthase isoform type-2 (Homo sapiens, UniProt P31153). In words: Inhibition of recombinant human MAT2A.
Series [5] can be described thus: Lipophilicity, log D of compound at pH 7.4. The series is classed as physicochemical. The following applies: buffer.
Series [6] addresses T2, S-adenosylmethionine synthase isoform type-1 (Homo sapiens, UniProt Q00266). In words: Inhibition of recombinant human MAT1A.
Series [7] addresses T2, S-adenosylmethionine synthase isoform type-1. Put plainly: Activation of human MAT1A. The following applies: filed as activator.
The target is the same in series [8]. In words: Inhibition of human MAT1A.
Series [9] deals with T1, S-adenosylmethionine synthase isoform type-2. In words: Inhibition of human MAT2A.
Target sequence in this assay (P31153 whole entry, canonical isoform): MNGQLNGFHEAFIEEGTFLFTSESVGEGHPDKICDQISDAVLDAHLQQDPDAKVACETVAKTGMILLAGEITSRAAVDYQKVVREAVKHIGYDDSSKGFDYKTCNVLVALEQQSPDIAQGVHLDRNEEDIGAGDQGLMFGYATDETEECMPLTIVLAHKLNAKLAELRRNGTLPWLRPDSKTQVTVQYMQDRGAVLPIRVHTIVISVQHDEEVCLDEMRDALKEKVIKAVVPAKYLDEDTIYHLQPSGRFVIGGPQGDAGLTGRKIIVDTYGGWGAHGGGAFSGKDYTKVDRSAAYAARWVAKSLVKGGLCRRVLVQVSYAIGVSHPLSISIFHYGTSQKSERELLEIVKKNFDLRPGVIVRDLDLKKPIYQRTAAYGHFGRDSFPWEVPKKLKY

≈ marks a conversion by molar mass, not a printed value. Calls of active or inactive are those of the source. No cut-off for these calls is given here.

What is called solubility is the dissolved amount per volume that the medium holds. Low readings indicate little dissolved substance, high ones much dissolved substance. One may read the IC50 as the concentration that gives 50% inhibition. Broadly, the logD is lipophilicity at a set pH, counting ionised and neutral species. Read a high logD as a more lipophilic compound.

T2 sequence (Q00266 whole entry, canonical isoform): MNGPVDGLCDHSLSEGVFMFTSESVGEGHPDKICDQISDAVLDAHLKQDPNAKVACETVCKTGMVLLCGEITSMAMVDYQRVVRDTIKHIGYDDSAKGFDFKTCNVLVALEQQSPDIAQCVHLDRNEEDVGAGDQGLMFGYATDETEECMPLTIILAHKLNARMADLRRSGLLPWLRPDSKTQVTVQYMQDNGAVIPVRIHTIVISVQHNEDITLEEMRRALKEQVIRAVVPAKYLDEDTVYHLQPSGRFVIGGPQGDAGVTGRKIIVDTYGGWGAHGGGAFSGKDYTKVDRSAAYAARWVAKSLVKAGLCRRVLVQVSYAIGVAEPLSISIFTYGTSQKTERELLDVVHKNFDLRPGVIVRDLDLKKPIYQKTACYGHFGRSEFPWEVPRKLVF

With `CCn1ncc2c(C(=O)Nc3ccc4ncn(C)c4c3)cc(C3CC3)nc21`, the concentration in solution in series [1] (solubility) came to 49 µM (≈ 17.7 µg/mL). For the same compound, the IC50 in the series with HCT-116 [2] was 7.17 µM; in the series with HCT-116 [3] it was over 10 µM; in [4], 0.205 µM. In series [5], this compound came in with a logD of 2.6.
On to `COc1ccc(-c2c(Nc3ccccn3)[nH]c3c(C4=CCCCC4)c(-c4ccccc4)nn3c2=O)cc1`, for which the inhibition result in [6] and in [4] was “Active” throughout. The result in [7] was Active.
In series [1], `CC(C)n1ncc2c(C(=O)Nc3ccc4n[nH]cc4c3)cc(C3CC3)nc21` had a solubility of 19 µM (≈ 6.85 µg/mL). Also, the values for the IC50 (in the series with HCT-116 [2]; with HCT-116 [3]; in series [4]) were over 10 µM, over 10 µM and 1.84 µM, respectively. This compound came in with a logD in series [5] of 3.3.
The compound `CCCCn1ncc2c(C(=O)Nc3ccc4nn(C)cc4c3)cc(C3CC3)nc21` yielded a solubility in series [1] of 4 µM (≈ 1.55 µg/mL). Moreover, the IC50 in series [4] was over 10 µM. In addition, the logD in series [5] is 3.2.
Regarding `COc1ccc2oc3cc(C)[n+]([O-])c(-c4ccc(C)cc4)c3c2c1`, the concentration in solution in series [1] (solubility) was 11 µM (≈ 3.51 µg/mL). For the same compound, the IC50 in the series with HCT-116 [2] was 4.96 µM; in the series with HCT-116 [3], 9.23 µM; in series [4], 0.051 µM. Further, the logD in [5] stood at 2.7.
On to `COc1ccc2oc3cc(C)[n+]([O-])c(-c4ccccc4)c3c2c1`, for which the solubility in series [1] was determined as 15 µM (≈ 4.58 µg/mL). In [4], the IC50 is 1.31 µM. Moreover, the logD in series [5] was 2.3.
In turn, `CCn1ncc2c(C(=O)Nc3ccc4ncccc4c3)cc(C3CC3)nc21` yielded a solubility in [1] of 13 µM (≈ 4.65 µg/mL). For the same compound, the IC50 was 6.41 µM in the series with HCT-116 [2], over 10 µM in the series with HCT-116 [3] and 0.277 µM in [4]. Also, in [5], the logD was found to be 3.2.
Take `COc1ccc(-c2c3c(cc(C)[n+]2[O-])oc2ccc(OC)cc23)cc1`: the solubility in [1] stood at 42 µM (≈ 14.1 µg/mL). The IC50 is 7.55 µM with HCT-116 [2], over 10 µM in the series on HCT-116 [3] and 0.145 µM in series [4]. Besides, the log distribution coefficient (logD) in series [5] was 2.5.
`O=c1nc(N2CC[C@@H](F)C2)c2ccc(Cl)cc2n1-c1ccccc1`: the inhibition result in [6] and in series [4] was “Active” in each case. Half-maximal inhibition in [8] (IC50) was put at 0.813 µM.
In the case of `CCn1ncc2c(C(=O)Nc3ccc4c(c3)ncn4C)cc(C3CC3)nc21`, the solubility in series [1] came to 47 µM (≈ 16.9 µg/mL). The IC50 in the series with HCT-116 [2] is 9.96 µM; with HCT-116 [3], over 10 µM; in [4], 0.303 µM. Also, the pH-dependent lipophilicity (logD) in series [5] was found to be 2.6.
For `CCn1ncc2c(C(=O)Nc3ccc4nn(C)c(C)c4c3)cc(C3CC3)nc21`, in that order: 9 µM (≈ 3.37 µg/mL), 3.19 µM, over 10 µM, 0.09 µM and 2.9.
For `CCn1cc2cc(NC(=O)c3cc(C4CC4)nc4c3cnn4CC)ccc2n1`, in that order: 32 µM (≈ 12 µg/mL), 2.42 µM, over 10 µM, 0.068 µM and 3.1.
For `CC(C)n1ncc2c(C(=O)Nc3ccc4ncccc4c3)cc(C3CC3)nc21`, in that order: 4 µM (≈ 1.49 µg/mL), over 10 µM, over 10 µM, 3.71 µM and 3.7.
Compound `CCn1ncc2c(C(=O)Nc3ccc4[nH]ncc4c3)cc(C3CC3)nc21` displayed a solubility in series [1] of 23 µM (≈ 7.97 µg/mL). Also, the half-inhibitory concentration (IC50) in the series on HCT-116 [2] is over 10 µM; in the series with HCT-116 [3], over 10 µM; in [4] it was 0.469 µM. In [5], this compound returned a logD of 2.7.
Regarding `CN(C)CCc1nnc2cc(-c3ccccc3)c3cc(Cl)ccc3n12`, the inhibition result in [6] and in series [4] was “Active” throughout. Half-maximal inhibition in series [9] (IC50) was put at 0.412 µM. The result in series [7] was Active.
Turning to `Cn1cc2cc(-n3cc4cnc(NCC(F)(F)F)nc4c(-c4ccc(OC(F)F)cc4)c3=O)ccc2n1`, the inhibition entry in series [6] and in series [4] was “Active” each time. In addition, the IC50 in [8] is over 10 µM; in [9], 0.05 µM.
Compound `CCn1ncc2c(C(=O)Nc3ccc4ncsc4c3)cc(C3CC3)nc21` yielded a solubility in series [1] of 1 µM (≈ 0.363 µg/mL). The IC50 with HCT-116 [2] is 3.86 µM; in the series on HCT-116 [3], over 10 µM; in series [4] it was 0.172 µM. Moreover, the logD in [5] was 3.4.
Consider `CC(C)n1ncc2c(C(=O)Nc3ccc4nn(C)cc4c3)cc(C3CC3)nc21`, for which the solubility in series [1] was 3 µM (≈ 1.12 µg/mL). Also, the results for the IC50 (in the series on HCT-116 [2]; with HCT-116 [3]; in series [4]) were over 10 µM, over 10 µM and 0.403 µM, respectively. Besides, in series [5], the logD turned out to be 3.3.
In series [1], `COc1ccc2oc3cc(C)[n+]([O-])c(-c4ccc(Cl)cc4)c3c2c1` yielded a solubility of 14 µM (≈ 4.76 µg/mL). Further, the IC50 worked out at 3.12 µM in the series on HCT-116 [2], 7.93 µM with HCT-116 [3] and 0.122 µM in series [4]. The same compound returned a logD in series [5] of 2.8.
The compound `CC(C)n1ncc2c(C(=O)Nc3ccc4nccnc4c3)cc(C3CC3)nc21` came in with a solubility in [1] of 2 µM (≈ 0.745 µg/mL). Besides, the IC50 in [4] was over 10 µM. This compound also had a logD in [5] of 3.5.
For `CCn1ncc2c(C(=O)N(C)c3ccc4nn(C)cc4c3)cc(C3CC3)nc21`, in that order: 94 µM (≈ 35.2 µg/mL), over 10 µM and 2.2.
The compound `CCn1ncc2c(C(=O)Nc3ccc4nn(C)cc4c3)cc(C3CC3)nc21` gave a solubility in series [1] of 2 µM (≈ 0.721 µg/mL). Further, the figures for the IC50 (in the series on HCT-116 [2]; in the series with HCT-116 [3]; in series [4]) were 1.71 µM, over 10 µM and 0.078 µM, respectively. The compound further gave a logD in series [5] of 2.8.
`CCn1ncc2c(C(=O)Nc3ccc(OC)cc3)cc(C3CC3)nc21` showed a solubility in series [1] of 3 µM (≈ 1.01 µg/mL). Moreover, the IC50 in the series with HCT-116 [2] was 5.27 µM; in the series with HCT-116 [3], over 10 µM; in series [4], 0.13 µM. Further, the logD in series [5] amounted to 3.6.

Values taken from ChEMBL document CHEMBL5365425, “Discovery of novel methionine adenosyltransferase 2A (MAT2A) allosteric inhibitors by structure-based virtual screening” (Bioorg Med Chem Lett, 2023).
